Data reported in paper PMC5453931, “Cathelicidin-trypsin inhibitor loop conjugate represents a promising antibiotic candidate with protease stability” (Scientific Reports, 2017).
Converted amounts (≈) assume the structure as drawn. Where a SMILES comes first, the peptide text is derived from it. Bridges are numbered along the chain shown (N, C = ends).

Columns and labels:
E. coli ATCC25922 = assay: Thermal stability of antimicrobial activity; assay type: physicochemical; details: 2 mg/mL in water, up to 96 h, E. coli ATCC25922, 1 × MIC, Fig. 3D
Experimental: Thermal stability of Hc-3 and hybrid peptides was examined according to the method described in our previous work[31]. Peptide was dissolved in sterile deionized water to a final concentration of 2 mg/mL, and incubated at 37 °C for 0–96 h. At each time point, the bacteria colonies of E. coli ATCC25922 survived 1 × MIC were measured.

[1] = system: established C. albicans biofilm; assay: Biofilm disruption assay, established biofilm (XTT, PI/SYBR Green I); assay type: cell-based
Experimental: TIH3F that has the best antifungal activity among the four peptides was chosen to examine the effect on the C. albicans biofilm formation and the established biofilm using previously described method with minor modifications. In the biofilm inhibition assay, after the incubation at 35 °C, C. Albicans was diluted to 1 × 10^6 CFU/mL in RPMI-1640 medium. Then 2 mL culture was added to each well of 6-well plates with coverslips at the bottom, and incubated at 35 °C in a humid chamber for 3 h. Non-adherent cells were then washed away by PBS, and series concentrations of TIH3F (0, 1, 2, 4 μg/mL) were added into the plate, with amphotericin B as control. The formation of the biofilm was determined by the XTT Cell Proliferation and Cytotoxicity Kit (KeyGEN BioTECH, Nanjing, China) after 36-h incubation. In the biofilm disruption assay, the biofilm was preformed as described above but with a longer incubation time up to 72 h. Then TIH3F and amphotericin B of series concentrations (0, 2.5, 5, 10, 25, 50 μg/mL) was added after non-adherent cells were washed out. The measurement of remaining biofilm was then determined. In order to further confirm the antifungal effect of TIH3F against C. albicans encased in biofilms, the established biofilm was treated with TIH3F (0, 5, 50 μg/mL), washed three times with PBS, and finally stained with 1 mL 1000-fold diluted PI/SYBR Green I at 30 °C in the dark for 20 min. After washing with PBS, the plate was immediately photographed with fluorescence microscope.

trypsin = assay: Protease stability, RP-HPLC analysis of degradation; assay type: in vitro ADME
Experimental: To further examine the stability of TIH3F incubated with enzymes (trypsin and protease K) over time, the LC analysis of peptide degradation over a series of time spans (0, 6, 12, 24 h) was performed. TIH3F and protease solution were prepared in 0.1 M NH4HCO3 buffer (pH 8.2) to final molar ratio of 300:1, and incubated at 37 °C for 6, 12, and 24 h, respectively. Then 150 μL aliquots were taken at given time intervals, diluted with 150 μL of water/acetonitrile (60/40 v/v) containing 2% TFA, and analyzed by RP-HPLC (Thermo Scientific Syncronis C18 column, 250 mm × 4.6 mm, 5 μm), eluted with acetonitrile/water (containing 0.1% TFA) mixture of linear gradient concentration.

Vibrio Parahaemolyticus = assay: MIC, two-fold broth microdilution; assay type: cell-based; details: Aquatic pathogenic bacteria; two-fold broth microdilution, 37 °C, 18 h; mean of three independent experiments in duplicates
How it was run: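 Two-fold broth microdilution in Mueller-Hinton broth: exponential-phase microbes were diluted to 10^6 CFU/mL, then mixed 1:1 with serially diluted peptide. Plates were shaken at 37 °C for 18 h and read at A595. MIC is the lowest concentration with no growth, averaged over three independent experiments.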

Compound: CC[C@H](C)[C@@H]1NC(=O)[C@H](CO)NC(=O)[C@H](CCCCN)NC(=O)[C@H]([C@@H](C)O)NC(=O)[C@H](Cc2c[nH]c3ccccc23)NC(=O)[C@@H](N)CSSC[C@@H](C(=O)N[C@@H](CCCCN)C(=O)N[C@@H](Cc2ccccc2)C(=O)N[C@@H](Cc2ccccc2)C(=O)N[C@@H](CCCCN)C(=O)N[C@@H](CCCNC(=N)N)C(=O)N[C@@H](Cc2ccccc2)C(=O)N[C@@H](Cc2ccccc2)C(=O)N[C@@H](CCCCN)C(=O)N[C@@H](CO)C(=O)N[C@@H](Cc2ccccc2)C(=O)N[C@@H](CCCNC(=N)N)C(=O)N[C@@H](CCCNC(=N)N)C(=O)N[C@@H](C)C(=O)N[C@@H](Cc2ccccc2)C(=O)N[C@@H](CCCCN)C(=O)N[C@@H](CCCCN)C(=O)N[C@@H](Cc2ccccc2)C(N)=O)NC(=O)[C@@H]2CCCN2C(=O)[C@H](CCCCN)NC(=O)[C@@H]2CCCN2C(=O)[C@@H]2CCCN2C1=O [TIH3F] (H-CWTKSIPPKPCKFFKRFFKSFRRAFKKF-NH2; disulfide 1-11)
- antimicrobial activity after incubation at 37 °C (E. coli ATCC25922): maintained its potent antimicrobial activity
- damage of established C. albicans biofilm ([1]; 5 μg/mL, biofilm preformed 72 h, XTT metabolic activity, Fig. 2B): 50%
- killing of C. albicans in preformed biofilm ([1]; 50 μg/mL, PI/SYBR Green I staining, fluorescence microscopy, Fig. 2C): destroy all of the cell membranes
- RP-HPLC absorbance of the peptide before trypsin incubation (trypsin; pure peptide, 0 h, C18 RP-HPLC, Fig. 4E): 600 mAU
- degradation by trypsin (trypsin; trypsin, 300:1, 0.1 M NH4HCO3 pH 8.2, 37 °C, 6 h, RP-HPLC, Fig. 4): a little degradation
- intact peptide remaining after trypsin incubation (trypsin; trypsin, 300:1, 0.1 M NH4HCO3 pH 8.2, 37 °C, up to 24 hours, RP-HPLC, Fig. 4): remained half
- RP-HPLC absorbance of the peptide after trypsin incubation (trypsin; trypsin, peptide:protease 300:1, 0.1 M NH4HCO3 pH 8.2, 37 °C, 6 h, C18 RP-HPLC, Fig. 4F): 500 mAU
- MIC Vibrio Parahaemolyticus (Vibrio Parahaemolyticus): 4.69 µg/mL (≈ 1.32 µM)
